Measurements taken from article PMC12811658, “Design, Synthesis, and Structural Evolution of Pseudo‐Natural Product IDO1 Inhibitors and Degraders” (Angewandte Chemie (International Ed. in English), 2025).
Entries after “also recorded” stand apart in the source; their conditions may differ.

System: Kyn levels in BxPC3 cells (kynurenine generated by IDO1)
Assay: Cellular Kyn assay (automated Kyn screening assay)
Type: cell-based
Details: for IC50: Homo sapiens, BXPC-3, 48 h, IFN-γ, L-Trp and compounds 48 h, mean ± SD, read-out: IC50 (Kyn assay), reduction of kynurenine levels

Row | Structure (SMILES) | activity in cellular Kyn assay (in words) | IC50 [nM]
1 | CC(C)(C)c1ccc(S(=O)(=O)N2C[C@@H]3C[C@@H]4[C@H](C[C@]3(COC(=O)Nc3ccc(I)cc3)C2)C4(C)C)cc1 [compound 21, ((3aR,4aS,5aR,6aR)-2-((4-(tert-butyl)phenyl)sulfonyl)-5,5-dimethyloctahydrocyclopropa[f]isoindol-3a(1H)-yl)methyl (4-iodophenyl)carbamate] | inactive | 
2 | CC1(C)[C@H]2C[C@@H]3CN(S(=O)(=O)c4ccc(C5CCCCC5)cc4)C[C@]3(COC(=O)Nc3ccc(I)cc3)[C@@H]1C2 [compound 71, ((3aS,4R,6R,7aS)-2-((4-cyclohexylphenyl)sulfonyl)-5,5-dimethyloctahydro-3aH-4,6-methanoisoindol-3a-yl)methyl (4-iodophenyl)carbamate] |  | 1100 ± 300
3 | CC(C)(C)c1ccc(S(=O)(=O)N2CC3C[C@H]4C[C@H](C4(C)C)[C@]3(COC(=O)c3ccccc3)C2)cc1 (stereo partly drawn) [compound 15, ((3aR,4R,6R)-2-((4-(tert-butyl)phenyl)sulfonyl)-5,5-dimethyloctahydro-3aH-4,6-methanoisoindol-3a-yl)methyl benzoate] | did not improve activity; also recorded: inactive | 
4 | CC(C)[C@]12C[C@@H](OC(=O)Nc3ccc(I)cc3)[C@]3(CCN(S(=O)(=O)c4ccc(C(C)(C)C)cc4)C3)[C@H]1C2 [compound 23, (1S,2R,3R,5S)-1'-((4-(tert-butyl)phenyl)sulfonyl)-5-isopropylspiro[bicyclo[3.1.0]hexane-2,3'-pyrrolidin]-3-yl (4-iodophenyl) carbamate] | inactive | 
5 | Cc1ccc(NC(=O)OC[C@]23CN(S(=O)(=O)c4ccccc4Br)C[C@H]2C[C@H]2C[C@@H]3C2(C)C)cc1 [compound 59, ((3aS,4R,6R,7aS)-2-((2-bromophenyl)sulfonyl)-5,5-dimethyloctahydro-3aH-4,6-methanoisoindol-3a-yl)methyl p-tolylcarbamate] |  | 6200 ± 1700
6 | Cc1ccc(NC(=O)OC[C@]23CN(S(=O)(=O)C4CCCCC4)C[C@H]2C[C@H]2C[C@@H]3C2(C)C)cc1 [compound 55, ((3aS,4R,6R,7aS)-2-(cyclohexylsulfonyl)-5,5-dimethyloctahydro-3aH-4,6-methanoisoindol-3a-yl)methyl p-tolylcarbamate] |  | 5100 ± 400
7 | CC(C)c1ccc(S(=O)(=O)N2C[C@H]3C[C@H]4C[C@H](C4(C)C)[C@@]3(COC(=O)Nc3ccc(I)cc3)C2)cc1 [compound 69, ((3aS,4R,6R,7aS)-2-((4-isopropylphenyl)sulfonyl)-5,5-dimethyloctahydro-3aH-4,6-methanoisoindol-3a-yl)methyl (4-iodophenyl)carbamate] |  | 140 ± 20
8 | CCOC(=O)C(C)(C)c1ccc(S(=O)(=O)N2C[C@H]3C[C@H]4C[C@H](C4(C)C)[C@@]3(COC(=O)Nc3ccc(I)cc3)C2)cc1 [compound 89, Ethyl 2-(4-(((3aS,4R,6R,7aS)-3a-((((4-iodophenyl)carbamoyl)oxy)methyl)-5,5-dimethyloctahydro-2H-4,6-methanoisoindol-2-yl)sulfonyl)phenyl)-2-methylpropanoate] |  | 250 ± 80
9 | Cc1ccc(S(=O)(=O)N2C[C@H]3C[C@H]4C[C@H](C4(C)C)[C@@]3(COC(=O)Nc3ccc(I)cc3)C2)cn1 [compound 62, ((3aS,4R,6R,7aS)-5,5-dimethyl-2-((6-methylpyridin-3-yl)sulfonyl)octahydro-3aH-4,6-methanoisoindol-3a-yl)methyl (4-iodophenyl)carbamate] |  | 1300 ± 300
10 | CC(C)(C)c1ccc(S(=O)(=O)N2C[C@H]3C[C@H]4C[C@H](C4(C)C)[C@@]3(COC(=O)Nc3ccc(Br)cc3)C2)cc1 [compound 36, ((3aS,4R,6R,7aS)-2-((4-(tert-butyl)phenyl)sulfonyl)-5,5-dimethyloctahydro-3aH-4,6-methanoisoindol-3a-yl)methyl (4-bromophenyl)carbamate] |  | 230 ± 50
11 | CC(C)(C)c1ccc(S(=O)(=O)N2C[C@H]3C[C@H]4C[C@H](C4(C)C)[C@@]3(COC(=O)Nc3ccccc3I)C2)cc1 [compound 37, ((3aS,4R,6R,7aS)-2-((4-(tert-butyl)phenyl)sulfonyl)-5,5-dimethyloctahydro-3aH-4,6-methanoisoindol-3a-yl)methyl (2-iodophenyl)carbamate] |  | 890 ± 180
12 | CC(C)(C)c1ccc(C(=O)N2C[C@H]3C[C@H]4C[C@H](C4(C)C)[C@@]3(COC(=O)Nc3ccc(I)cc3)C2)cc1 [compound 16, ((3aS,4R,6R,7aS)-2-(4-(tert-butyl)benzoyl)-5,5-dimethyloctahydro-3aH-4,6-methanoisoindol-3a-yl)methyl (4-iodophenyl)carbamate] | abolished activity | 
13 | Cc1ccc(S(=O)(=O)N2C[C@H]3C[C@H]4C[C@H](C4(C)C)[C@@]3(COC(=O)Nc3ccc(I)cc3)C2)cc1 [compound 68, ((3aS,4R,6R,7aS)-5,5-dimethyl-2-tosyloctahydro-3aH-4,6-methanoisoindol-3a-yl)methyl (4-iodophenyl)carbamate] |  | 720 ± 270
14 | CC(C)(C)c1ccc(S(=O)(=O)N2C[C@H]3C[C@H]4C[C@H](C4(C)C)[C@@]3(COC(=O)Nc3ccc(C#CCCO)cc3)C2)cc1 [compound 53, ((3aS,4R,6R,7aS)-2-((4-(tert-butyl)phenyl)sulfonyl)-5,5-dimethyloctahydro-3aH-4,6-methanoisoindol-3a-yl)methyl (4-(4-hydroxybut-1-yn-1-yl)phenyl)carbamate] |  | 2500 ± 200
15 | CC1(C)[C@H]2C[C@@H]3CN(S(=O)(=O)c4ccc(-c5ccccc5)cc4)C[C@]3(COC(=O)Nc3ccc(I)cc3)[C@@H]1C2 [compound 70, ((3aS,4R,6R,7aS)-2-([1,1'-biphenyl]-4-ylsulfonyl)-5,5-dimethyloctahydro-3aH-4,6-methanoisoindol-3a-yl)methyl (4-iodophenyl)carbamate] |  | 340 ± 170
16 | CC(C)(C)c1ccc(S(=O)(=O)N2C[C@H]3C[C@H]4C[C@H](C4(C)C)[C@@]3(COC(=O)Nc3ccc(Cl)cc3)C2)cc1 [compound 35, ((3aS,4R,6R,7aS)-2-((4-(tert-butyl)phenyl)sulfonyl)-5,5-dimethyloctahydro-3aH-4,6-methanoisoindol-3a-yl)methyl (4-chlorophenyl)carbamate] |  | 510 ± 80
17 | COC(=O)CC(C)(C)c1ccc(S(=O)(=O)N2C[C@H]3C[C@H]4C[C@H](C4(C)C)[C@@]3(COC(=O)Nc3ccc(I)cc3)C2)cc1 [compound 90, Methyl 3-(4-(((3aS,4R,6R,7aS)-3a-((((4-iodophenyl)carbamoyl)oxy)methyl)-5,5-dimethyloctahydro-2H-4,6-methanoisoindol-2-yl)sulfonyl)phenyl)-3-methylbutanoate] |  | 32 ± 11
18 | Cc1ccc(NC(=O)OC[C@]23CN(S(=O)(=O)C(C)C)C[C@H]2C[C@H]2C[C@@H]3C2(C)C)cc1 [compound 54, ((3aS,4R,6R,7aS)-2-(isopropylsulfonyl)-5,5-dimethyloctahydro-3aH-4,6-methanoisoindol-3a-yl) methyl p-tolylcarbamate] |  | 4700 ± 410
19 | CC(C)(C)c1ccc(S(=O)(=O)N2CC3CCCCC3(COC(=O)Nc3ccc(I)cc3)C2)cc1 (stereo not shown) [compound 25, (2-((4-(tert-butyl)phenyl)sulfonyl)octahydro-3aH-isoindol-3a-yl) methyl (4-iodophenyl) carbamate] | inactive | 
